Experiments:
Assay type in all cases: biochemical
Conditions in all cases: HeLa S3 lysate, sfGFP/mCherry ratio, 2 hrs at 30° C.
[1] = system: MYC; experiment: In vitro transcription-translation (IVTT) reporter assay, MYC test sequence
Method in brief: (§1)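 Coupled transcription-translation in HeLa S3 lysate with reporter plasmids encoding mCherry-P2A-3×FLAG-TEST-sfGFP behind an EMCV IRES. Compounds were half-log titrated (30 μM-0.1 μM in DMSO dilution plate) into master mix, then DNA was added. Reactions ran 2 hrs at 30° C, were PBS-quenched and read for fluorescence.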

[2] = system: CCND1; experiment: In vitro transcription-translation (IVTT) reporter assay, CCND1 test sequence
Source text: (§2) All reporter constructs have been cloned into the pT7CFE1-CHis plasmid (ThermoFisher #88860) using Gibson assembly procedures (NEB #E2611L). The parental pT7CFE1-CHis plasmid contains an EMCV IRES at the 5′UTR for translation initiation, a multiple-cloning site (MCS) for gene insertion, an optional C-terminal His-epitope tag, and polyA sequence in the 3′UTR to regulate mRNA stability. All reporters are designed to be inserted at the MCS to include a red fluorescent protein (mCherry), P2A self-cleaving peptide which releases the preceding mCherry protein product, and a fusion open reading frame containing a 3×FLAG epitope, a peptide sequence of interest (TEST), and green fluorescent protein (sfGFP).
(§3) Construct Plasmid Preparation: All plasmids are isolated from MACH1 cells (ThermoFisher) grown overnight in ampicillin-containing luria broth, and purified using ZymoPure Express Plasmid Midiprep Kit (Zymo Research). Constructs are sequenced verified and diluted to a working concentration of 110 ng/μL.
(§4) HeLa S3 Lysate Preparation: HeLa S3 cell pellets are acquired from Ipracell/Ipratech (Belgium) and shipped as 4 mL frozen cell pellets on dry ice for storage at −80° C. until use. The procedure for lysate preparation is as follows. Prepare 1× Lysis Buffer, cold and stored on ice:
(§5) Each preparation takes 8 cell pellets (4 ml packed volume each, approximately 1.0×10^9 cells per pellet). Thaw cell pellets from −80° C. on ice for 90 mins. Lay pellets horizontally on top of the ice and rotate every 30 mins to ensure even thawing. Once thawed, add 4 mL of cold lysis buffer to each pellet, and using a serological pipet, gently pipet up and down to break up clumps. Incubate resuspended cells in ice for an additional 30 mins (plunged into ice). During 30 min incubation, rinse and RNase-zap (Ambion) glass dounces (use loose pestle “A”), gently dry and place on ice until needed. Prepare RNase-free Eppendorf tubes for spinning and for batch storage. Add batch labels to 1.5-1.7 mL RNase-free microcentrifuge tubes (labeling scheme below). Each batch will have an extra 1.5-1.7 mL RNase-free microcentrifuge tube for 40 μL of lysate, label the top of this tube (labeling scheme below). After 30 min incubation, transfer all 8 mL of cell pellet to dounce. Cell lysis is complete after douncing 100 times. Aliquot cell lysis into 1.5-1.7 mL temporary-microcentrifuge tubes. Place tubes in centrifuge with “fins” out, and spin at 1,200 xg for 5 mins. After the first spin use a 1 mL pipet to resuspend each tube and repeat spin. This acts as an additional lysis step, is more vigorous and increases lysate yield. During second spin get liquid N2 and a fresh conical tube on ice.
(§6) After spin is complete, transfer supernatant (lysate) from microcentrifuge tubes into the 50 mL conical tube and keep on ice. Repeat steps 10-14 for all other cell pellets until completed. Once all cell lysate has been transferred to the 50 mL conical tube pipet to mix so the solution is homogenous. Transfer 1 mL of lysate into batch-labeled microcentrifuge tubes and flash freeze in liquid nitrogen. Be sure to pipet up and down to mix throughout transfer step. Place all tubes in the […] for long-term storage.
(§7) In vitro transcription-translation assay setup: Each assay includes a master mix containing lysate and shared components, a 96-well plate containing compound titrations for testing, a 96-well DNA plate with reporter constructs to be tested, 96-well skirted PCR plates, and 96-well flat-bottom, black, fluorescent assay plates. […]

[3] = system: MCL-1; experiment: In vitro transcription-translation (IVTT) reporter assay, MCL-1 test sequence
Source text: as §2, §3, §4, §5, §6, §7

[4] = system: KRAS G12D; experiment: In vitro transcription-translation (IVTT) reporter assay, KRAS G12D test sequence
Method in brief: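 Cell-free HeLa S3 lysate transcription-translation of reporter plasmids encoding mCherry-P2A-3×FLAG-test peptide (CCND1, KRAS G12D, MCL-1 or BCL-2)-sfGFP under EMCV IRES. Half-log compound dilutions (30 μM-0.1 μM, prepared in DMSO); reactions 2 h at 30 °C, quenched with PBS for fluorescence read.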

[5] = system: ALK; experiment: In vitro transcription-translation (IVTT) reporter assay, ALK test sequence
Method in brief: as §1

IC50 [1] [µM]	IC50 [2] [µM]	IC50 [3] [µM]	IC50 [4] [µM]	IC50 [5] [µM]	Structure (SMILES)
< 10	< 10	< 10			COc1ccc(C[C@H]2NC[C@H](O)[C@H]2OC(C)=O)cc1Cl [V188046]
< 10	< 10		< 10	< 10	COc1ccc(C[C@H]2NC[C@H](O)[C@H]2OC(=O)Cc2ccccn2)cc1 [V187082, (2R,3S,4S)-4-hydroxy-2-[(4-methoxyphenyl)methyl]pyrrolidin-3-yl 2-(pyridin-2-yl)acetate]
> 30		> 30			COc1ccc(C[C@H]2NC[C@](C)(O)[C@H]2OC(C)=O)cc1 [V188182, (2R,3S,4S)-4-hydroxy-2-[(4-methoxyphenyl)methyl]-4-methylpyrrolidin-3-yl acetate]
< 10	< 10			< 10	COc1ccc(C[C@H]2NC[C@H](O)[C@H]2OC(=O)Cc2ccncc2)cc1 [V187056]
< 10	< 10			< 10	COCCC(=O)OC1[C@@H](O)CN[C@@H]1Cc1ccc(OC)cc1 (some centres unmarked) [V187168]
< 10	> 30		> 30	< 10	COc1ccc(C[C@H]2NC[C@H](O)[C@H]2OC(=O)CC2NC(=O)CNC2=O)cc1 (stereo partly drawn) [V186862, (2R,3S,4S)-4-hydroxy-2-[(4-methoxyphenyl)methyl]pyrrolidin-3-yl 2-(3,6-dioxopiperazin-2-yl)acetate]
< 10	< 10	< 10			CC(=O)O[C@@H]1[C@@H](O)CN[C@@H]1Cc1ccc([N+](=O)[O-])cc1 [V188168, (2R,3S,4S)-4-hydroxy-2-[(4-nitrophenyl)methyl]pyrrolidin-3-yl acetate]
< 10	< 10		< 10	< 10	COc1ccc(C[C@H]2NC[C@H](O)[C@H]2OC(=O)Cc2cnccn2)cc1 [V187088, (2R,3S,4S)-4-hydroxy-2-[(4-methoxyphenyl)methyl]pyrrolidin-3-yl 2-(pyrazin-2-yl)acetate]
< 10	< 10		< 10	< 10	COc1ccc(C[C@H]2NC[C@H](O)[C@H]2OC(=O)CCCCCO)cc1 [V186777]
< 10	< 10				CC(=O)O[C@@H]1[C@@H](O)CN[C@@H]1Cc1ccc(-c2cn(-c3ccnc(N)n3)nn2)cc1 [V188057, (2R,3S,4S)-2-({4-[1-(2-aminopyrimidin-4-yl)-1,2,3-triazol-4-yl]phenyl}methyl)-4-hydroxypyrrolidin-3-yl acetate]
< 10	< 10		< 10		COc1ccc(C[C@H]2NC[C@H](O)[C@H]2OC(=O)CCc2cocn2)cc1 [V187176, (2R,3S,4S)-4-hydroxy-2-[(4-methoxyphenyl)methyl]pyrrolidin-3-yl 3-(1,3-oxazol-4-yl)propanoate; trifluoroacetic acid]
> 30	> 30	> 30			COc1ccc(C[C@H]2NC[C@H](O)[C@H]2OC(C)=O)cc1C#N [V188045]
< 10	< 10		< 10	< 10	CC(=O)O[C@@H]1[C@@H](O)CN[C@@H]1Cc1ccc(-c2cn(Cc3ccccc3)nn2)cc1 [V187750]
< 10	< 10			< 10	COc1ccc(C[C@H]2NC[C@H](O)[C@H]2OC(=O)CNC2CC2)cc1 [V187170, (2R,3S,4S)-4-hydroxy-2-[(4-methoxyphenyl)methyl]pyrrolidin-3-yl 2-(cyclopropylamino)acetate]
< 10			< 10	< 10	COc1ccc(C[C@H]2NC[C@H](O)[C@H]2OC(=O)C[C@H]2CCNC2)cc1 [V187689]
< 10			20 to 30	< 10	COc1ccc(C[C@H]2NC[C@H](O)[C@H]2OC(=O)C2CC(F)(F)C2)cc1 [V186775, (2R,3S,4S)-4-hydroxy-2-[(4-methoxyphenyl)methyl]pyrrolidin-3-yl 3,3-difluorocyclobutane-1-carboxylate]
< 10	< 10	< 10			COc1ccc(C[C@H]2NC[C@H](O)[C@H]2OC(C)=O)cc1F [V187569]
> 30			> 30	10 to 20	COc1ccc(C[C@H]2NC[C@H](O)[C@H]2OC(=O)C2CC3(C2)CC(N(C)C)C3)cc1 (stereo partly drawn) [V187066, (2R,3S,4S)-4-hydroxy-2-[(4-methoxyphenyl)methyl]pyrrolidin-3-yl 6-(dimethylamino)spiro[3.3]heptane-2-carboxylate]
< 10			< 10	< 10	CC(=O)O[C@@H]1[C@@H](O)CN[C@@H]1Cc1ccccc1 [V186810, (2R,3S,4S)-2-benzyl-4-hydroxy pyrrolidin-3-yl acetate]
> 30			> 30	> 30	COc1ccc(C[C@H]2NC[C@H](O)[C@H]2OC(=O)C2(OCc3ccccc3)CNC2)cc1 [V000192, (2R,3S,4S)-4-hydroxy-2-(4-methoxybenzyl) pyrrolidin-3-yl 3-(benzyloxy)azetidine-3-carboxylate]
< 10			10 to 20	< 10	COc1ccc(C[C@H]2NC[C@H](O)[C@H]2OC(=O)CCN2C(=O)CNC2=O)cc1 [V186870, (2R,3S,4S)-4-hydroxy-2-[(4-methoxyphenyl)methyl]pyrrolidin-3-yl 3-(2,5-dioxoimidazolidin-1-yl)propanoate]

Structure (SMILES)	IC50 [1] [µM]	IC50 [2] [µM]	IC50 [3] [µM]	IC50 [4] [µM]	IC50 [5] [µM]
COc1ccc(C[C@H]2NC[C@H](O)[C@H]2OC(=O)CCNC(C)C)cc1 [V187155, (2R,3S,4S)-4-hydroxy-2-[(4-methoxyphenyl)methyl]pyrrolidin-3-yl 3-(isopropylamino)propanoate; trifluoroacetic acid]	> 30	< 10		> 30	10 to 20
COc1ccc(C[C@H]2NC[C@H](O)[C@H]2OC(=O)C2CCC2)cc1 [V186921, (2R,3S,4S)-4-hydroxy-2-[(4-methoxyphenyl)methyl]pyrrolidin-3-ylcyclobutanecarboxylate; trifluoroacetic acid]	< 10	< 10		< 10	
COc1ccc(C[C@H]2NC[C@H](O)[C@H]2OC(=O)CNC2CC(F)(F)C2)cc1 [V187172]	< 10	< 10		< 10	< 10
COc1ccc(C[C@H]2NC[C@H](O)[C@H]2OC(=O)CC(F)(F)F)cc1 [V187162, (2R,3S,4S)-4-hydroxy-2-[(4-methoxyphenyl)methyl]pyrrolidin-3-yl 3,3,3-trifluoropropanoate; trifluoroacetic acid]	< 10	< 10		< 10	< 10
COc1ccc(C[C@H]2NC[C@H](O)[C@H]2OC(=O)CN2CC(F)(F)C2)cc1 [V187045, (2R,3S,4S)-4-hydroxy-2-[(4-methoxyphenyl)methyl]pyrrolidin-3-yl 2-(3,3-difluoroazetidin-1-yl)acetate; trifluoroacetic acid]		< 10			< 10
COc1ccc(C[C@H]2NC[C@H](O)[C@H]2OC(=O)C2CN(C(=O)C3CCOCC3)C2)cc1 [V186989, (2R,3S,4S)-4-hydroxy-2-[(4-methoxyphenyl)methyl]pyrrolidin-3-yl 1-(oxane-4-carbonyl)azetidine-3-carboxylate; trifluoroacetic acid]	> 30			> 30	> 30
